Patent US12558428B2, “Heterobifunctional compounds and their use in treating disease” (Halda Therapeutics OpCo, Inc., priority 2024, dated 2026)
Like-named read-outs stand apart in the source and are kept apart here.

Legend:
Type in all cases: cell-based
[1] = test system: MCF7 cells (ATCC #HTB-22); assay: Cellular growth inhibition assay, MCF7 cells purchased from ATCC; conditions: Table 8-A, MCF7 cells purchased from ATCC, six days, CellTiter-Glo, read-out: GI50
Procedure, shortened: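 GI50 values come from a four-parameter fit of CellTiter-Glo 2.0 luminescence after six days of compound exposure at 37° C. Seeding density depended on the source: 225 cells/well for ECACC MCF7, 1,500 for ATCC. Medium was RPMI 1640 with 10% FBS and 0.2 U/ml insulin.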

[2] = test system: T-Rex 293 cells having increased expression of estrogen receptor alpha protein; assay: Cellular growth inhibition assay, T-Rex 293 cells, (+) doxycycline; conditions: T-Rex 293 cells with doxycycline (increased ERα expression), 72 hours, CellTiter-Glo, read-out: (+) Dox GI50
Procedure, shortened: (§1)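 Growth of a doxycycline-inducible ERα T-Rex 293 clone, induced or not with 3 ng/mL doxycycline, was followed for 72 h with test compound in hormone-depleted medium. CellTiter-Glo luminescence gave GI50.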

[3] = test system: T-Rex 293 cells lacking increased expression of estrogen receptor alpha protein; assay: Cellular growth inhibition assay, T-Rex 293 cells, (−) doxycycline; conditions: T-Rex 293 cells without doxycycline (lacking increased ERα expression), 72 hours, CellTiter-Glo, read-out: (−) Dox GI50
Procedure, shortened: as §1

| Structure (SMILES) | GI50 ([1]; Homo sapiens, MCF7, 144 h) [nM] | GI50 ([2]; T-REx-293, 72 h, Table 7-B) [nM] | GI50 ([3]; T-REx-293, 72 h, Table 7-B) [nM] | GI50 ([2]; T-REx-293, 72 h, Table 7-A) [nM] | GI50 ([3]; T-REx-293, 72 h, Table 7-A) [nM] | GI50 [1] [nM] | GI50 ([2]; Table 7-A) [nM] | GI50 ([3]; Table 7-A) [nM] |
| --- | --- | --- | --- | --- | --- | --- | --- | --- |
| COc1cc(N2CCN(CC3(O)CCN(c4ccc(C5=N[C@@H](C)c6nnc(C)n6-c6sc(C)c(C)c65)cc4)CC3)CC2)ccc1C1=C(c2ccccc2Cl)CCCc2cc(C(=O)O)ccc21 [IV-65] | 50 to 500 | < 50 | 500 to 2500 | – | – | – | – | – |
| COc1ccc(-c2sc3cc(OC)ccc3c2C(=O)c2ccc(OCCN3CCC(CCCCOc4ccc(C5=N[C@@H](Cc6ncco6)c6nnc(C)n6-c6sc(C)c(C)c65)cc4)CC3)cc2)cc1 [V-1] | 50 to 500 | – | – | 50 to 500 | 50 to 500 | – | – | – |
| COc1ccc(-c2sc3cc(OC)ccc3c2C(=O)c2ccc(OCCN3CCC4(CC3)CC(Oc3ccc(C5=N[C@@H](Cc6ncco6)c6nnc(C)n6-c6sc(C)c(C)c65)cc3)C4)cc2)cc1 [V-2] | – | – | – | – | – | 50 to 500 | 50 to 500 | 500 to 2500 |
| COc1ccc(-c2sc3cc(OC)ccc3c2C(=O)c2ccc(OCCN3CCC(CCOc4ccc(C5=N[C@@H](Cc6ncco6)c6nnc(C)n6-c6sc(C)c(C)c65)cc4)CC3)cc2)cc1 [V-3] | 50 to 500 | – | – | 50 to 500 | 50 to 500 | – | – | – |
| CC1=C(c2c(F)cc(F)cc2F)[C@@H](c2ccc(OCCN3CCCC4(CCN(c5ccc(C6=N[C@@H](C)c7nnc(C)n7-c7sc(C)c(C)c76)cc5)CC4)C3)cc2)Oc2ccc(O)cc21 [V-4] | 50 to 500 | – | – | 500 to 2500 | 500 to 2500 | – | – | – |
| CC1=C(c2c(F)cc(F)cc2F)[C@H](c2ccc(OCCN3CCCC4(CCN(c5ccc(C6=N[C@@H](C)c7nnc(C)n7-c7sc(C)c(C)c76)cc5)CC4)C3)cc2)Oc2ccc(O)cc21 [V-5] | 50 to 500 | – | – | 50 to 500 | 500 to 2500 | – | – | – |
| CC1=C(c2c(F)cc(F)cc2F)C(c2ccc(OCCN3CCCN(c4ccc(C5=N[C@@H](C)c6nnc(C)n6-c6sc(C)c(C)c65)cc4)CC3)cc2)Oc2ccc(O)cc21 (stereo partly drawn) [V-6] | 50 to 500 | – | – | 50 to 500 | 500 to 2500 | – | – | – |
| CC1=C(c2c(F)cc(F)cc2F)[C@H](c2ccc(OCCN3CCC[C@]4(CCN(c5ccc(C6=N[C@@H](C)c7nnc(C)n7-c7sc(C)c(C)c76)cc5)C4)C3)cc2)Oc2ccc(O)cc21 [V-7] | 50 to 500 | – | – | < 50 | 50 to 500 | – | – | – |
| CC1=C(c2c(F)cc(F)cc2F)[C@H](c2ccc(OCCN3CCC[C@@]4(CCN(c5ccc(C6=N[C@@H](C)c7nnc(C)n7-c7sc(C)c(C)c76)cc5)C4)C3)cc2)Oc2ccc(O)cc21 [V-8] | 50 to 500 | – | – | < 50 | 500 to 2500 | – | – | – |
| CC1=C(c2c(F)cc(F)cc2F)[C@@H](c2ccc(OCCN3CCC[C@]4(CCN(c5ccc(C6=N[C@@H](C)c7nnc(C)n7-c7sc(C)c(C)c76)cc5)C4)C3)cc2)Oc2ccc(O)cc21 [V-9] | 50 to 500 | – | – | > 2500 | 500 to 2500 | – | – | – |
| CC1=C(c2c(F)cc(F)cc2F)[C@@H](c2ccc(OCCN3CCC[C@@]4(CCN(c5ccc(C6=N[C@@H](C)c7nnc(C)n7-c7sc(C)c(C)c76)cc5)C4)C3)cc2)Oc2ccc(O)cc21 [V-10] | 500 to 2500 | – | – | 500 to 2500 | 500 to 2500 | – | – | – |
| CC1=C(c2c(F)cc(F)cc2F)C(c2ccc(N3CCN(CC4CCN(c5ccc(C6=N[C@@H](C)c7nnc(C)n7-c7sc(C)c(C)c76)cc5)CC4)CC3)cc2)Oc2ccc(O)cc21 (stereo partly drawn) [V-11] | 50 to 500 | – | – | 50 to 500 | 500 to 2500 | – | – | – |
| CC1=C(c2c(F)cc(F)cc2F)[C@H](c2ccc(C3CCN(CC4CCN(c5ccc(C6=N[C@@H](C)c7nnc(C)n7-c7sc(C)c(C)c76)cc5)CC4)CC3)cc2)Oc2ccc(O)cc21 [V-12] | 50 to 500 | – | – | < 50 | 50 to 500 | – | – | – |
| CC1=C(c2c(F)cc(F)cc2F)[C@@H](c2ccc(C3CCN(CC4CCN(c5ccc(C6=N[C@@H](C)c7nnc(C)n7-c7sc(C)c(C)c76)cc5)CC4)CC3)cc2)Oc2ccc(O)cc21 [V-13] | 50 to 500 | – | – | 50 to 500 | 50 to 500 | – | – | – |
| CC1=C(c2c(F)cc(F)cc2F)[C@@H](c2ccc(N3CCN(C(=O)C4CCN(c5ccc(C6=N[C@@H](C)c7nnc(C)n7-c7sc(C)c(C)c76)cc5)CC4)CC3)cc2)Oc2ccc(O)cc21 [V-14] | 50 to 500 | – | – | 50 to 500 | 500 to 2500 | – | – | – |
| CC1=C(c2c(F)cc(F)cc2F)[C@H](c2ccc(N3CCN(C(=O)C4CCN(c5ccc(C6=N[C@@H](C)c7nnc(C)n7-c7sc(C)c(C)c76)cc5)CC4)CC3)cc2)Oc2ccc(O)cc21 [V-15] | 50 to 500 | – | – | < 50 | 50 to 500 | – | – | – |
| CC1=C(c2c(F)cc(F)cc2F)C(c2ccc(OCCN3CCC4(CC3)CCN(c3ccc(C5=N[C@@H](C)c6nnc(C)n6-c6sc(C)c(C)c65)cc3)C4)cc2)Oc2ccc(O)cc21 (stereo partly drawn) [V-16] | 50 to 500 | – | – | 500 to 2500 | 500 to 2500 | – | – | – |
| CC1=C(c2c(F)cc(F)cc2F)C(c2ccc(N3CCC4(CCCN(CCOc5ccc(C6=N[C@@H](C)c7nnc(C)n7-c7sc(C)c(C)c76)cc5)C4)C3)cc2)Oc2ccc(O)cc21 (stereo partly drawn) [V-17] | 50 to 500 | – | – | 50 to 500 | 50 to 500 | – | – | – |
| CC1=C(c2c(F)cc(F)cc2F)C(c2ccc(N3CCC4(CCN(C(=O)Cc5ccc(C6=N[C@@H](C)c7nnc(C)n7-c7sc(C)c(C)c76)cc5)C4)CC3)cc2)Oc2ccc(O)cc21 (stereo partly drawn) [V-18] | 50 to 500 | – | – | 50 to 500 | 50 to 500 | – | – | – |
| CC1=C(c2c(F)cc(F)cc2F)[C@H](c2ccc(N3CCC(CN4CCC5(CC4)CN(c4ccc(C6=N[C@@H](C)c7nnc(C)n7-c7sc(C)c(C)c76)cc4)C5)CC3)cc2)Oc2ccc(O)cc21 [V-19] | < 50 | – | – | < 50 | 500 to 2500 | – | – | – |
| CC1=C(c2c(F)cc(F)cc2F)[C@@H](c2ccc(N3CCC(CN4CCC5(CC4)CN(c4ccc(C6=N[C@@H](C)c7nnc(C)n7-c7sc(C)c(C)c76)cc4)C5)CC3)cc2)Oc2ccc(O)cc21 [V-20] | 50 to 500 | – | – | < 50 | 500 to 2500 | – | – | – |
| CC1=C(c2c(F)cc(F)cc2F)C(c2ccc(N3CCN(CC4CN(c5ccc(C6=N[C@@H](C)c7nnc(C)n7-c7sc(C)c(C)c76)cc5)C4)CC3)cc2)Oc2ccc(O)cc21 (stereo partly drawn) [V-21] | < 50 | – | – | < 50 | 50 to 500 | – | – | – |
| CC1=C(c2c(F)cc(F)cc2F)[C@@H](c2ccc(N3CCN(CC4CCN(c5ccc(C6=N[C@@H](C)c7nnc(C)n7-c7sc(C)c(C)c76)cc5)CC4)CC3)cc2)Oc2ccc(O)cc21 [V-22] | 50 to 500 | – | – | < 50 | 500 to 2500 | – | – | – |
| CC1=C(c2c(F)cc(F)cc2F)[C@H](c2ccc(N3CCN(CC4CCN(c5ccc(C6=N[C@@H](C)c7nnc(C)n7-c7sc(C)c(C)c76)cc5)CC4)CC3)cc2)Oc2ccc(O)cc21 [V-23] | 50 to 500 | – | – | < 50 | 500 to 2500 | – | – | – |
| CC1=C(c2c(F)cc(F)cc2F)[C@H](c2ccc(N3CCN(CC4CCN(c5ccc(C6=N[C@H](C)c7nnc(C)n7-c7sc(C)c(C)c76)cc5)CC4)CC3)cc2)Oc2ccc(O)cc21 [V-24] | > 2500 | – | – | > 2500 | > 2500 | – | – | – |
| CC1=C(c2c(F)cc(F)cc2F)[C@@H](c2ccc(N3CCN(CC4CCN(c5ccc(C6=N[C@H](C)c7nnc(C)n7-c7sc(C)c(C)c76)cc5)CC4)CC3)cc2)Oc2ccc(O)cc21 [V-25] | > 2500 | – | – | > 2500 | > 2500 | – | – | – |
| CC1=C(c2c(F)cc(F)cc2F)[C@@H](c2ccc(OCC(=O)N3CCC4(CC3)CCN(c3ccc(C5=N[C@@H](C)c6nnc(C)n6-c6sc(C)c(C)c65)cc3)C4)cc2)Oc2ccc(O)cc21 [V-26] | 50 to 500 | – | – | < 50 | 50 to 500 | – | – | – |
| CC1=C(c2c(F)cc(F)cc2F)[C@H](c2ccc(OCC(=O)N3CCC4(CC3)CCN(c3ccc(C5=N[C@@H](C)c6nnc(C)n6-c6sc(C)c(C)c65)cc3)C4)cc2)Oc2ccc(O)cc21 [V-27] | 50 to 500 | – | – | < 50 | 500 to 2500 | – | – | – |
